According to patent US5476782A, “DNA encoding a human 5-HT1E receptor and uses thereof” (Synaptic Pharmaceutical Corporation, priority 1995, dated 1995):
Where two headings read alike, the source gives them in different places.

Key:
human 5-HT1E receptor [1] = target: T1, human 5-HT1E receptor (Homo sapiens, UniProt P28566); experiment: [3H]5-HT displacement binding, membranes of Ltk- cells transfected with cloned 5-HT1E receptor; design: The entire coding region of clone hp75d was cloned into the eukaryotic expression vector pcEXV-3; expressed in transfected cells; host or cells: Ltk- mouse fibroblast cells (line 5-HT1E-7, ATCC CRL 10913, plasmid pcEXV-hp75d); conditions: for affinity (in words): displacement of [3H]5-HT specific binding; for decrease of affinity relative to serotonin: substitution or removal of the 5-hydroxy group
T1 sequence (P28566 whole entry): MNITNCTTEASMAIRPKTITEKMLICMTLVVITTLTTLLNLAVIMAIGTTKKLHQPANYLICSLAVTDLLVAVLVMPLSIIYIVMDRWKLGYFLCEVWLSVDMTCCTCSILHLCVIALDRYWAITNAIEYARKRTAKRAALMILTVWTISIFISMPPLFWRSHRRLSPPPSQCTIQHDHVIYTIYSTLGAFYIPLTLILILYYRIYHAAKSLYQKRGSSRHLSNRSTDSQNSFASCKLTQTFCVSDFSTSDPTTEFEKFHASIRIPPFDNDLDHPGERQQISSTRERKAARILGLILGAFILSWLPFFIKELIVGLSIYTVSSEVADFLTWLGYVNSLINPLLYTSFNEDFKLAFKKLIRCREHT
Procedure: Membranes were prepared from transfected Ltk^- cells which were grown to 100% confluency. The cells were washed twice with phosphate-buffered saline, scraped from the culture dishes into 5 ml of ice-cold phosphate-buffered saline, and centrifuged at 200×g for 5 min at 4° C. The pellet was resuspended in 2.5 ml of ice-cold Tris buffer (20 mM Tris -HCl, pH 7.4 at 23° C., 5 mM EDTA) and homogenized by a Wheaton tissue grinder. The lysate was subsequently centrifuged at 200×g for 5 min at 4° C. to pellet large fragments which were discarded. The supernatant was collected and centrifuged at 40,000× g for 20 min at 4° C. The pellet resulting from this centrifugation was washed once in ice-cold Tris buffer and finally resuspended in a final buffer containing 50 mM Tris-HCl and 0.5 mM EDTA, pH 7.4 at 23° C. Membrane preparations were kept on ice and utilized within two hours for the radioligand binding assays.
The binding profile of drugs in competition experiments was accomplished using 10-12 concentrations of compound. Incubation times were 30 min for both saturation and displacement studies based upon initial investigations which determined equilibrium binding conditions. […] Binding was initiated by the addition of 50 μl membrane homogenates (10-20 μg). The reaction was terminated by rapid filtration through presoaked (0.5% polyethyleneimine) filters using 48R Cell Brandel Harvester (Gaithersburg, Md.). Subsequently, filters were washed for 5 seconds with ice cold buffer (50 mM Tris HCL, pH 7.4 at 4° C.), dried and placed into vials containing 2.5 ml of Readi-Safe (Beckman, Fullerton, Calif.) and radioactivity was measured using a Beckman LS 5000TA liquid scintillation counter. […] Binding data was analyzed by computer-assisted nonlinear regression analysis (Accufit and Accucomp, Lundon Software, Chagrin Falls, Ohio). […] All experiments were performed in triplicate.

5-HT1E binding site = conditions: native site, human cortical tissue; cited from earlier work
human 5-HT1E receptor [2] = target: T1, human 5-HT1E receptor; conditions: forskolin-stimulated cAMP
Procedure: Transfected Y1 cells (expression level=688 fmol/mg of protein) were incubated in DMEM, 5 mM theophylline, 10 mM Hepes (4-[2-Hydroxyethyl]-1-piperazineethanesulfonic acid), 10 μM pargyline, for 20 minutes at 37° C., 5% CO2. […] Subsequently, the cells were incubated for an additional 10 minutes at 37° C., 5% CO2. The media was aspirated and the reaction terminated by the addition of 100 mM HCl. The plates were stored at 4° C. for 15 minutes and centrifuged for 5 minutes (500×g at 4° C.) to pellet cellular debris. Aliquots of the supernatant fraction were then stored at -20° C. prior to assessment of cAMP formation by radioimmunoassay (cAMP Radioimmunoassay kit, Advanced Magnetics, Cambridge, Mass.).

human 5-HT1E receptor [3] = experiment: Inhibition of [3H]5-HT specific binding by Gpp(NH)p (G-protein coupling); conditions: inhibition of specific binding of [3H]5-HT
[4] = displacement of 4.5-5.5 nM [3H]5-HT, 37° C., 30 min, Table 1, read-out: Ki

| Compound | Ki (human 5-HT1E receptor [1]; [4]) [nM] | affinity (in words) (human 5-HT1E receptor [1]) | also measured |
| --- | --- | --- | --- |
| c1ccc2c(N3CCNCC3)cccc2c1 [1-Napthylpiperazine] | 207 ± 69 |  | Ki (human 5-HT1E receptor [1]; read-out: Ki values): 207 nM |
| Cc1[nH]c2ccc(O)cc2c1CCN [2-Methyl-5-HT] | 817 ± 203 |  |  |
| NCCc1c[nH]c2ccc(C(N)=O)cc12 [5-CT, 5-carboxyamidotryptamine] | 7880 ± 284 | low affinity | affinity (in words) (5-HT1E binding site): low affinity; decrease of affinity relative to serotonin (human 5-HT1E receptor [1]): 300 fold |
| NCCc1c[nH]c2ccc(O)cc12 [5-HT, 5-hydroxytryptamine] |  | highest affinity | maximum inhibition of cAMP production (human 5-HT1E receptor [2]): 32% |
| COc1ccc2[nH]cc(CCN)c2c1 [5-Methoxytryptamine] | 3150 ± 1040 |  | decrease of affinity relative to serotonin (human 5-HT1E receptor [1]): 300 fold |
| CCCN(CCC)C1CCc2cccc(O)c2C1 (centres unmarked) [8-OH-DPAT] | 3330 ± 310 | very poor affinity |  |
| COc1cc(CC(C)N)c(OC)cc1I (centres unmarked) [DOI] | 2970 ± 592 | very poor affinity |  |
| CCCN(CCC)CCc1c[nH]c2ccc(C(N)=O)cc12 [DP-5-CT] |  |  | Ki (human 5-HT1E receptor [1]): > 10000 nM |
| C[C@@H](CO)NC(=O)[C@@H]1C=C2c3cccc4[nH]cc(c34)C[C@H]2N(C)C1 [Ergonovine] |  |  | Ki (human 5-HT1E receptor [1]): 87.7 ± 7.6 nM |
| CN1C[C@H](C(=O)N[C@]2(C)O[C@@]3(O)[C@@H]4CCCN4C(=O)[C@H](Cc4ccccc4)N3C2=O)C=C2c3cccc4[nH]cc(c34)C[C@H]21 [Ergotamine] | 599 ± 39 |  | affinity (in words) (5-HT1E binding site): low affinity |
| Nc1nc2c(ncn2[C@@H]2O[C@H](COP(=O)(O)OP(=O)(O)NP(=O)(O)O)[C@@H](O)[C@H]2O)c(=O)[nH]1 [Gpp(NH)p] |  |  | IC50 (human 5-HT1E receptor [3]): 1880 ± 556 nM; Imax (human 5-HT1E receptor [3]): 26.4±5.6% |
| O=C(c1ccc(F)cc1)C1CCN(CCn2c(=O)[nH]c3ccccc3c2=O)CC1 [Ketanserin] |  | very poor affinity |  |
| Nc1ccc(CCN2CCN(c3cccc(C(F)(F)F)c3)CC2)cc1 [LY-165163 (PAPP)] |  |  | Ki (human 5-HT1E receptor [1]): > 10000 nM |
| CN1C[C@H](CO)C=C2c3cccc4[nH]cc(c34)C[C@H]21 [Lysergol] | 42.8 ± 5.3 |  |  |
| CSc1ccc2c(c1)C(N1CCN(C)CC1)Cc1ccccc1S2 (centres unmarked) [Methiothepin] | 194 ± 4 |  | Ki (human 5-HT1E receptor [1]; read-out: Ki values): 194 nM |
| CC[C@@H](CO)NC(=O)[C@@H]1C=C2c3cccc4[nH]cc(c34)C[C@H]2N(C)C1 [Methylergonovine] | 89.4 ± 4.2 |  |  |
| CC[C@@H](CO)NC(=O)[C@@H]1C=C2c3cccc4c3c(cn4C)C[C@H]2N(C)C1 [Methysergide] | 228 ± 16 |  |  |
| Cc1cc(C(C)(C)C)c(O)c(C)c1CC1=NCCN1 [Oxymetazoline] | 419 ± 49 |  |  |
| CC(C)NCC(O)COc1cccc2[nH]ccc12 (centres unmarked) [Pindolol] |  | very poor affinity |  |
| COC(=O)[C@H]1[C@H]2C[C@H]3c4[nH]c5ccccc5c4CCN3C[C@H]2CC[C@@H]1O [Rauwolscine] |  |  | Ki (human 5-HT1E receptor [1]): 3430 ± 102 nM |
| O=C(CCCN1CCC2(CC1)C(=O)NCN2c1ccccc1)c1ccc(F)cc1 [Spiperone] | 5050 ± 689 | very poor affinity |  |
| FC(F)(F)c1cccc(N2CCNCC2)c1 [TFMPP] | 6290 ± 259 |  |  |
| NCCc1c[nH]c2ccccc12 [Tryptamine] | 2560 ± 827 |  | decrease of affinity relative to serotonin (human 5-HT1E receptor [1]): 300 fold |
| COC(=O)[C@@H]1[C@H]2C[C@H]3c4[nH]c5ccccc5c4CCN3C[C@@H]2CC[C@@H]1O [Yohimbine] | 1270 ± 233 |  |  |
| COc1cc(N)c(Cl)cc1C(=O)NC1CN2CCC1CC2 (centres unmarked) [Zacopride] |  | very poor affinity |  |
